Measurements as given in ChEMBL document CHEMBL1201862, “PubChem BioAssay data set” (2004).
Calls of active or inactive are those of the source.

Experiments:
SN12K1 = assay: cells; format: functional; settings: Homo sapiens
P388/ADR = assay: cells; format: functional; settings: Mus musculus
[1] = target: T1, High affinity choline transporter 1 (Homo sapiens, UniProt Q9GZV3); assay: CHT inhibitors, dose response, cell-based, 5-point CRC, membrane potential dye (AID 504840); format: functional
T1 sequence (Q9GZV3 whole entry): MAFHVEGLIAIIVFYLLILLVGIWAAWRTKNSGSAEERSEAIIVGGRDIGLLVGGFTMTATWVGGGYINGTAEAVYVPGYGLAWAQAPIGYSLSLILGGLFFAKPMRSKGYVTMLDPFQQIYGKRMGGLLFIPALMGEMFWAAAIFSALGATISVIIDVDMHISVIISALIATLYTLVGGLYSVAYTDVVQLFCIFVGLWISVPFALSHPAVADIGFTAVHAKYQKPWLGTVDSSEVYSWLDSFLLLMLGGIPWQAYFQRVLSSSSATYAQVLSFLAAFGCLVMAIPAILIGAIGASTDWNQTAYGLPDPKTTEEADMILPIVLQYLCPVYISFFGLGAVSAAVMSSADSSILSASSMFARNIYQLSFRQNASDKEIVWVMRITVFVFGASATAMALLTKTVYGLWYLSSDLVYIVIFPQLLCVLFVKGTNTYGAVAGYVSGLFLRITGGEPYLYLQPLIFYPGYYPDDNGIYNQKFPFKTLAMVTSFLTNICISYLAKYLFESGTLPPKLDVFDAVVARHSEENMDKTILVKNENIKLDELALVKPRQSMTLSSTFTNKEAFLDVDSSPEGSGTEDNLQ

Aminopeptidase N = target: T2, Aminopeptidase N (Plasmodium falciparum FcB1/Columbia, UniProt O96935); assay: P. falciparum M1AAP inhibitors, biochemical, fluorogenic H-Leu-NHMec substrate, 1536-well (AID 1445); parameters: species or system Plasmodium falciparum 3D7, 3D7
T2 sequence (O96935 whole entry): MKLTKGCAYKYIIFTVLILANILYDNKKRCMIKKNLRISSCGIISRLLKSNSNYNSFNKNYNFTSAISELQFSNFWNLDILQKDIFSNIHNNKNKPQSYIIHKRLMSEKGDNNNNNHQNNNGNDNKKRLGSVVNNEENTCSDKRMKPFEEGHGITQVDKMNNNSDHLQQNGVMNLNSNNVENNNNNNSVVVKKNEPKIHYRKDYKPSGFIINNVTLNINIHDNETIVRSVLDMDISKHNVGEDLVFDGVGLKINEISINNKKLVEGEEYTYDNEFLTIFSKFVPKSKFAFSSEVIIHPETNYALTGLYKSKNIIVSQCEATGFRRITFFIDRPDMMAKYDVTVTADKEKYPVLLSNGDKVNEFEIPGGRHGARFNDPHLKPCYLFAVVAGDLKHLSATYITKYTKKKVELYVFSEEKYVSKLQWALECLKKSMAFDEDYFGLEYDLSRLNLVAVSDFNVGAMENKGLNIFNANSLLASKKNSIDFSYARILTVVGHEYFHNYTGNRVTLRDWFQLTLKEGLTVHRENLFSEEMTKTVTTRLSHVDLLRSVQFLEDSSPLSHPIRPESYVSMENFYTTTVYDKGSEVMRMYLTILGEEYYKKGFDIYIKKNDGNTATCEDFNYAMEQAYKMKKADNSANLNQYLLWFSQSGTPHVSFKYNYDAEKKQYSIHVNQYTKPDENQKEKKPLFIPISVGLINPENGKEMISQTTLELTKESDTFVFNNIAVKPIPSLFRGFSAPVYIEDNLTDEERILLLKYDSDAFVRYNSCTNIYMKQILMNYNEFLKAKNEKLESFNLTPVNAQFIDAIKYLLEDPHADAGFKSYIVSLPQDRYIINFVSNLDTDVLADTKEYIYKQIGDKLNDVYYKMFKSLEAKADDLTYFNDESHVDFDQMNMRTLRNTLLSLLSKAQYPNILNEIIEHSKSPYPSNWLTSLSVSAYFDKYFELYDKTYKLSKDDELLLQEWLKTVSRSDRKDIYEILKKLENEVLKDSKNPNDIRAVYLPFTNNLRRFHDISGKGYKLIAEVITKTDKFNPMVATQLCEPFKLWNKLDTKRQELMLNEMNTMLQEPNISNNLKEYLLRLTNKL

[2] = cytotoxicity in HEK-293T cells, dose response, cytotoxicity control for TCR NF-kB inhibitor project, luminescence, T-cell screen hits (AID 489026); format: functional, cell-based;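 note: cells exposed to compound about 14 hours before the viability readout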
[3] = target: Heat shock protein HSP 90-alpha (Homo sapiens, UniProt P07900); format: functional, organism-based
Nonstructural protein 1 = Nonstructural protein 1 (Influenza A virus, UniProt Q194T2); format: functional, Influenza A virus (A/California/07/2009(H1N1))
[4] = tested on: Streptococcus sp. 'group A'; assay: growth inhibition of control SK(-) GAS strain, dose response, counter-screen for streptokinase expression inhibitor project, luminescence, kanamycin, BacTiterGlo, confirmation (AID 1900); format: functional, organism-based
Streptokinase A = target: T3, Streptokinase A (Streptococcus pyogenes serotype M1, UniProt P10520); assay: S. pyogenes streptokinase expression inhibitors, potency, dose response, plasminogen activation absorbance, OD405 (AID 1914); format: functional, Streptococcus pyogenes M1 GAS;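 note: secreted streptokinase activity via plasminogen activation per viability signal from cell pellet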
T3 sequence (P10520 whole entry): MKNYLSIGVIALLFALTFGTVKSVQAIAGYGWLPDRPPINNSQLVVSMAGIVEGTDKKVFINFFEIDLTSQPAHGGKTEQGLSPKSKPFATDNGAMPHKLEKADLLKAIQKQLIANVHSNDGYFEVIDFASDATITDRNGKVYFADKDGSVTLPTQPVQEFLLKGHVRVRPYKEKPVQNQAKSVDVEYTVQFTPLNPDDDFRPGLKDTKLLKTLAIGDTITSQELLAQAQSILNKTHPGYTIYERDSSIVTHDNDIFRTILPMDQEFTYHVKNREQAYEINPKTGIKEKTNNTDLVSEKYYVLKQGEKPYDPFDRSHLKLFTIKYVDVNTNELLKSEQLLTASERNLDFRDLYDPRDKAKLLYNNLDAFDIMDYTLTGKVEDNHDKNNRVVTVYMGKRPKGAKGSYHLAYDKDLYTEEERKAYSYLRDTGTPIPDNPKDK

[5] = target: T4, Zinc finger protein mex-5 (Caenorhabditis elegans, UniProt Q9XUB2); assay: MEX-5/TCR-2 RNA interaction inhibitors, dose response, biochemical, C. elegans, fluorescence polarization (AID 1960)
T4 sequence (Q9XUB2 whole entry): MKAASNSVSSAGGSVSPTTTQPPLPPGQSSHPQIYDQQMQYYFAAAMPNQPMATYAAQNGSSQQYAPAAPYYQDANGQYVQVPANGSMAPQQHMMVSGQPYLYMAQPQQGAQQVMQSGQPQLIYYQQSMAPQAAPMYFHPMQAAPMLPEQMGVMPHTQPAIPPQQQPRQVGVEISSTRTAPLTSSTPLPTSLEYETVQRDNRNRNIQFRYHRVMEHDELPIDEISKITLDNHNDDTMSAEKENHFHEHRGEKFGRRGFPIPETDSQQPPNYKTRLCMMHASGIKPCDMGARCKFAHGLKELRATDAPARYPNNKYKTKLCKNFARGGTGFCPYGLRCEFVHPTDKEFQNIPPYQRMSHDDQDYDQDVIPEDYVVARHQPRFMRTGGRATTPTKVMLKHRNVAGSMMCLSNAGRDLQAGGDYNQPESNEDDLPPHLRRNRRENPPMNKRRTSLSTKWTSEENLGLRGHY

Streptococcus = assay: Group A Streptococcus viability loss, dose response, counter-screen for streptokinase expression inhibitor project, luminescence, BacTiterGlo (AID 1915); format: functional, organism-based;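 note: potency for reduction of bacterial viability or growth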
[6] = target: T5, RNA-binding protein pos-1 (Caenorhabditis elegans, UniProt G5EF15); assay: inhibitors of POS-1/mex-3 RNA binding, dose response, biochemical, fluorescence polarization (AID 1964);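 note: purified POS-1 fused to maltose binding protein made in E. coli; potency of compounds blocking POS-1 binding to fluorescent RNA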
T5 sequence (G5EF15 whole entry): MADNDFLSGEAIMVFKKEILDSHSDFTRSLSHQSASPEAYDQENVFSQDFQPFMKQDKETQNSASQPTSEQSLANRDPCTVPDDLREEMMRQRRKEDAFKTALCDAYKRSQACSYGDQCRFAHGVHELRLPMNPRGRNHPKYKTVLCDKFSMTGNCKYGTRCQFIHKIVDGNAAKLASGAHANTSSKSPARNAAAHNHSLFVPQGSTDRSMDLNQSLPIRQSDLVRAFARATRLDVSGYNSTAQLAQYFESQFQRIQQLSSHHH

INS1 = assay: beta cell apoptosis inhibitors, cytokine rescue, dose response, luminescence, retest (AID 449756); format: functional, cell-based; settings: Rattus norvegicus;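 note: cell death triggered by IL-1 beta plus TNF-alpha plus IFN-gamma mixture; protective hits raise ATP signal compared with cytokine alone wells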
[7] = HepG2 cell cytotoxicity, dose response, cytotoxicity control for Shn3 inhibitor project, CellTiter-Glo, cherry-picked (AID 624134); format: functional, cell-based
[8] = control 3'UTR Renilla luciferase suppression, dose response, counter-screen for Shn3 inhibitor project, cell-based, Clone20-Shn3RL, cherry-picked (AID 624133); format: functional
[9] = Shn3 3'UTR reporter inhibitors, dose response, cell-based, Clone20 osteoblasts, firefly luciferase, cherry-picked (AID 624132); format: functional;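 note: firefly luciferase luminescence from reporter carrying the Shn3 3'UTR in osteoblasts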
cells = format: functional

Sequence of Nonstructural protein 1 (Q194T2 whole entry): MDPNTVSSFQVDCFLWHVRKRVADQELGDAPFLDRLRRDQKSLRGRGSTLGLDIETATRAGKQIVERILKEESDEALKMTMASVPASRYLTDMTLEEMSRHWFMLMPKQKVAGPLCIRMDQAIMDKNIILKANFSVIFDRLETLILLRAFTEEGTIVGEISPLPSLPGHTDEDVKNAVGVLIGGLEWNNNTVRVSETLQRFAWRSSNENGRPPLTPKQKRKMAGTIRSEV

For `O=C(O)/C=C/c1c[nH]cn1`, which GI50 (SN12K1) is on record?
The GI50 was > 500 µM (inactive).

What about the GI50 (P388/ADR) of the same compound?
Its GI50 is > 500 µM (inactive).

Which IC50 [1] does the source give for `CCc1c(C)nc2ccccc2c1O` here?
Its IC50 is 13.2 µM (active).

For `COCCNc1oc(/C=C/c2ccccc2)nc1C#N`, which IC50 (Aminopeptidase N) is on record?
Its IC50 is 36.7 µM (active).

Which IC50 [2] does the source give for `Cc1ccc(N=C(N)Nc2nc(O)cc(CSc3nnc(C)s3)n2)c(C)c1` here?
Its IC50 is > 80 µM (inactive).

Which AC50 [3] does the source give for `COc1cc2cnc(-c3ccccc3)c(C(=O)c3ccc(F)cc3)c2cc1OC` here?
Its AC50 is 2.12 µM (active).

For `COC(=O)c1ccc(CSc2nc3c(c(=O)n2-c2ccccc2)SCC3)o1`, which IC50 (Nonstructural protein 1) is on record?
The IC50 was > 100 µM (active).

Which results are given for `Cc1ccc(Oc2nc(-c3ccccn3)nc3ccccc23)cc1`?
EC50 [4]: 8.8 µM (active); EC50 (Streptokinase A): > 150 µM (not active); EC50 [5]: 6.96 µM (active); EC50 (Streptococcus): > 150 µM (not active); EC50 [6]: > 300 µM (inconclusive); AC50 (INS1): 1.78 µM (active)

Which results are given for `O=C(c1ccc2c(=O)n(-c3ccccc3)c(=S)[nH]c2c1)N1CCCCC1`?
AC50 [7]: 64.2 µM (active); AC50 [8]: 3.14 µM (active); AC50 [9]: 1.44 µM (active)

With `O=C(CCSc1nnc(-c2ccncc2)o1)Nc1ccc(Cl)cc1` as the compound, how does the IC50 (cells) read?
Its IC50 is 29.5 µM (active).

What about the AC50 [3] of the same compound?
Its AC50 is 1.65 µM (active).

For `Cc1ccc(C[S+]([O-])Cc2ccc(C(=O)NC3CCCCCC3)o2)cc1` (stereo unspecified), which IC50 [1] is on record?
Its IC50 is 14.5 µM (active).

For `O=C(Nn1c(SCc2ccc(F)cc2)nc2ccsc2c1=O)c1ccccc1`, which IC50 (Aminopeptidase N) is on record?
Its IC50 is 55.6 µM (active).

Which AC50 [7] does the source give for `CC(C)(C)C(=O)/C(=C/c1ccc(Cl)cc1)n1cncn1` here?
The AC50 was 18 µM (active).

What about the AC50 [8] of the same compound?
Its AC50 is 10.8 µM (active).

And the AC50 [9]?
Its AC50 is 3.75 µM (active).

With `O=C1N=C(NS(=O)(=O)c2ccccc2)S/C1=C1\C(=O)Nc2ccccc21` as the compound, how does the IC50 (Aminopeptidase N) read?
The IC50 was 25.1 µM (active).

For `Cc1ccc(-c2cc(C(F)F)n3ncc(C(=O)N4CCc5ccccc54)c3n2)cc1`, which IC50 [2] is on record?
The IC50 was > 80 µM (inactive).

With `CCn1c(CNC(=O)c2cccs2)nnc1SCC(=O)Nc1cc(Cl)ccc1C` as the compound, how does the IC50 (Aminopeptidase N) read?
The IC50 was 6.86 µM (active).
